Reference: patent US5223504A, “Xanthine compounds and compositions, and methods of using them” (Laboratorios Almirall SA, priority 1989, dated 1993)

Key:
PDE IV = assay: Guinea-pig right ventricle strips sensitized with a PDE III inhibitor (e.g. amrinone): increase in developed tension (PDE IV inhibitory activity); format: cell-based; settings: concentration causing 50% increase in developed tension; strips pre-treated with selective PDE III inhibitor (e.g. amrinone) 10 minutes before; 37° C., 1 Hz; read-out: Guinea-Pig Sensitized right ventricle strips (EC50μ M)
Description: (§1) There is, however, a synergistic interaction between selective PDE III and PDE IV inhibitors in guinea-pig ventricle. […] There were then mounted in organ baths containing modified Krebs-Henseleit solution of the following composition (mM): NaCl 118; NaHCO3 25; Glucose 11; KCl 5.4; CaCl2 2.5; NaH2PO4 1.2 and MgCl2 0.8. The physiological buffer was maintained at 37° C. and continually aerated with 95% O2 / 5% CO2 v/v. The preparations were placed under 1 g resting tension and electrically stimulated to contract at 1 Hz whilst force of contraction was measured using an isometric force transducer. Preparations were equilibrated for 60 minutes during which they were washed every 15 minutes with fresh buffer. […] Concentrations causing a 50% increase (EC50) were calculated.

PDE III = target: T1, PDE III (Cavia porcellus, UniProt H0VIU9); assay: Non-sensitized guinea-pig right ventricle strips: increase in developed tension (PDE III inhibitory activity); format: cell-based; settings: concentration causing 50% increase in developed tension; untreated (non-sensitized) strips; 37° C., 1 Hz; read-out: Guinea-Pig Non-Sensitized right ventricle strips (EC50μ M)
T1 construct: their hearts were removed and 2 ventricular preparations; from tissue; host or cells: guinea-pig right ventricle strips
T1 sequence (H0VIU9 1-1132): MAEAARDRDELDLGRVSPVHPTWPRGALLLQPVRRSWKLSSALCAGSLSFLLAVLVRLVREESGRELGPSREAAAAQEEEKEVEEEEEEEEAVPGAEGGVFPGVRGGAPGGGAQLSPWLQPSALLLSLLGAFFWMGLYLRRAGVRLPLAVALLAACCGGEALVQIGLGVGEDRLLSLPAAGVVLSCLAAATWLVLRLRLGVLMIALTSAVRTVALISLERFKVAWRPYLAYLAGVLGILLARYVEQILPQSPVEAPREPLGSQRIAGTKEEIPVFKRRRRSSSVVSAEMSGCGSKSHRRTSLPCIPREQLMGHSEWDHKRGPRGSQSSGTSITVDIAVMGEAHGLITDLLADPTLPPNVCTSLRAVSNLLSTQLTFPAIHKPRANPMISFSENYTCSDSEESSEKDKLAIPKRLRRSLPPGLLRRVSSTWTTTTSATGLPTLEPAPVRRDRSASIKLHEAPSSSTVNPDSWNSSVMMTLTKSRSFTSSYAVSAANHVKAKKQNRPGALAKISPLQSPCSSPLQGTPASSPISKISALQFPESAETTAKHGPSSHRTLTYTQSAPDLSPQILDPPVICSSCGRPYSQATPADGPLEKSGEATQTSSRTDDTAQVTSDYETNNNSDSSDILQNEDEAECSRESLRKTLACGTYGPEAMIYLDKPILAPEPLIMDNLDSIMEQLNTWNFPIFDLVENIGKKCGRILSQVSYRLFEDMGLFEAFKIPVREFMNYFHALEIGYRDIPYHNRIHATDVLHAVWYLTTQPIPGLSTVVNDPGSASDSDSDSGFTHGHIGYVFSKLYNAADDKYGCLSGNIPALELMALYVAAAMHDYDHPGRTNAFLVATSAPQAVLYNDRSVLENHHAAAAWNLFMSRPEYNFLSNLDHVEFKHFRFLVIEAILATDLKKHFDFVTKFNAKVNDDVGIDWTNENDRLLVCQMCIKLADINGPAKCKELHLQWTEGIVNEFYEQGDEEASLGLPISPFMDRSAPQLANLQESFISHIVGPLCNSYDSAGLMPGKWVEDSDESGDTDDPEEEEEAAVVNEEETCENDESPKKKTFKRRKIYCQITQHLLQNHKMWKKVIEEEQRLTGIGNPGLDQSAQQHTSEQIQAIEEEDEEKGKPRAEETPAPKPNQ
Description: as §1

[1] = system: isolated guinea-pig ventricles; settings: literature (Gristwood and Owen, Br. J. Pharmacol., 87, 91P., 1985); cited from earlier work

Row | SMILES | EC50 (PDE IV) [µM] | EC50 (PDE III) [µM] | inotropic response in isolated guinea-pig ventricles [1]
1 | CCCn1c(=O)c2[nH]cnc2n(-c2ccc(Cl)cc2)c1=O [Compound 1, 1-n-propyl-3-(4-chlorophenyl)-xanthine] | 1.6 | > 100 | –
2 | CCCn1c(=O)c2[nH]cnc2n(-c2cccc(Cl)c2)c1=O [Compound 2] | 0.1 | > 100 | –
3 | CCCn1c(=O)c2[nH]cnc2n(-c2ccc(Br)cc2)c1=O [Compound 5] | 0.9 | > 100 | –
4 | CCCn1c(=O)c2[nH]cnc2n(-c2cccc(OC)c2)c1=O [Compound 9] | 0.2 | > 100 | –
5 | CCCn1c(=O)c2[nH]cnc2n(-c2cccc([N+](=O)[O-])c2)c1=O [Compound 10] | 0.4 | > 100 | –
6 | CCCn1c(=O)c2[nH]cnc2n(-c2ccc(Cl)c(Cl)c2)c1=O [Compound 12, 1-n-propyl-3-(3,4-dicholorophenyl)-xanthine] | 1.3 | > 100 | –
7 | CCCCn1c(=O)c2[nH]cnc2n(-c2ccc(F)cc2)c1=O [Compound 18] | 0.2 | > 100 | –
8 | CCCCn1c(=O)c2[nH]cnc2n(-c2ccc(OC)cc2)c1=O [Compound 20] | 0.3 | > 100 | –
9 | CCCCn1c(=O)c2[nH]cnc2n(-c2cccc(OC)c2)c1=O [Compound 21, 1-n-butyl-3-(3-methoxyphenyl)-xanthine] | 1.2 | > 100 | –
10 | CCCCCCn1c(=O)c2[nH]cnc2n(-c2ccc3c(c2)OCO3)c1=O [Compound 36, 1-n-hexyl-3-(3,4-methylenedioxyphenyl)-xanthine] | 1 | > 100 | –
11 | Cn1c(=O)c2[nH]cnc2n(-c2ccccc2)c1=O [Compound A, 1methyl-3-phenylxanthine, reference compound] | 8.9 | > 100 | –
12 | CCCn1c(=O)c2[nH]c(C)nc2n(-c2ccccc2)c1=O [Compound B, 1propyl-3-phenyl-8-methylxanthine, reference compound] | 7 | > 100 | –
13 | CC(=O)Nc1ccc(-c2c[nH]c(=O)cn2)cc1 [SK&F 94120] | – | – | produce a positive inotropic response
14 | Cn1c(=O)c2[nH]cnc2n(C)c1=O [THEOPHYLLINE, reference compound] | 1520 | 1000 | –
15 | COc1ccc(C2CNC(=O)C2)cc1OC1CCCC1 (stereo not shown) [rolipram] | – | – | have no effect
